Where two headings read alike, the source gives them in different places.
Tests used:
Format in all cases: cell-based
[1] = tested on: LPS-induced nitric oxide (NO) production in RAW264.7 macrophages; assay: Inhibition of LPS-induced NO production in RAW264.7 macrophages (anti-inflammatory assay); details: LPS-stimulated, read-out: IC50 (μM), anti-inflammatory activity against LPS-stimulated NO production
Procedure: All isolates were evaluated for their anti-inflammatory activities against LPS-induced NO production in RAW264.7 macrophages (Table 3). […] This experiment was conducted according the reported procedure.

[2] = Cytotoxicity (CC50) in RAW 264.7 macrophages; details: mouse
Procedure: (§1) This experiment was conducted according the reported procedure.

RAW 264.7 macrophages = assay: Cytotoxicity (CC50) in RAW 264.7 macrophages
Procedure: as §1

[3] = Mus musculus, RAW264.7, RAW 264.7 macrophages

Row | SMILES | IC50 [1, 3] [µM] | IC50 ([1]; RAW 264.7 macrophages) [µM] | CC50 [2] [µM] | CC50 (RAW 264.7 macrophages) [µM]
1 | C[C@H]1CC[C@@H]2[C@H]1C[C@H]([C@@](C)(O)CO)C[C@@H](O)[C@@]2(C)O [Compound 13, (1R,4S,5S,7S,9R,10S,11R)-guaiane-9,10,11,12-tetraol] | 88.2 |  | > 50 | 
2 | C[C@@H]1[C@@H]2C[C@H]([C@](C)(O)CO)CC[C@@](C)(O)[C@@H]2C[C@@H]1O [Compound 12, (1R,3S,4R,5S,7R,10R,11S)-guaiane-3,10,11,12-tetraol] | 122 |  | > 50 | 
3 | C[C@H]1C[C@H](O)[C@@H]2[C@H]1C[C@H]([C@@](C)(O)CO)CC[C@@]2(C)O [Compound 10, (1S,2S,4S,5S,7R,10R)-guaiane-2,10,11,12-tetraol] | 150 |  | > 50 | 
4 | CC(=O)OCC(C)(O)C1CCC(C)(O)C2C(O)CC(C)C2C1 [Compound 7, (1S,2S,4S,5S,7R,10R,11R)-12-acetyl-2,10,11-trihydroxyguaiane] | 101 |  | > 50 | 
5 | N=C(N)NN [Aminoguanidine, aminoguanidine, reference compound] |  | 23.4 |  | > 50
6 | C[C@](O)(CO)[C@@H]1CC[C@@](C)(O)[C@@H]2CC[C@@](C)(O)[C@@H]2C1 [Compound 8, (1R,4R,5R,7R,10R)-4,10,11-trihydroxyguaiane] | 166 |  | > 50 | 

The next lines start with results.

Row | IC50 [1, 3] [µM] | IC50 ([1]; RAW 264.7 macrophages) [µM] | SMILES | CC50 [2] [µM] | CC50 (RAW 264.7 macrophages) [µM]
7 | 103 |  | C=C(C)C1CCC(C)(O)C2CCC(C)C2C1 [Compound 2, (1R,4S,5S,7R,10R)-11(13)-en-10-hydroxyguaiene] | > 50 | 
8 | 72.9 |  | C=C(C)[C@@H]1CC[C@@](C)(O)[C@@H]2CC(=O)[C@H](C)[C@H]2C1 [Compound 4, (1R,4S,5S,7R,10R)-3-oxo-11(13)-en-10-hydroxyguaiene] | > 50 | 
9 | 14.2 |  | C=C(CO)[C@@H]1CC[C@@](C)(O)[C@H]2[C@@H](C1)[C@@H](C)C[C@@H]2O [Compound 6, (1S,2S,4S,5S,7R,10R)-11(13)-en-2,10,12-trihydroxyguaiene] | > 50 | 
10 |  | 113 | C=C(C)C1CCC(C)(O)C2CC(O)C(C)C2C1 [Compound 3, (1R,3S,4R,5R,7R,10R)-11(13)-en-3,10-dihydroxyguaiene] |  | > 50
11 |  | 310 | C=C(C)C1CCC(C)(O)C2CC(O)C(C)C2C1 [Compound 1, (1R,3R,4R,5S,7R,10R)-11(13)-en-3,10-dihydroxyguaiene] | > 50 | 
12 | 141 |  | C[C@H]1CC[C@@H]2[C@H]1C[C@H]([C@](C)(O)CO)CC[C@@]2(C)O [Compound 11, (1R,4S,5S,7R,10R,11S)-guaiane-10,11,12-triol] | > 50 | 
13 | 79.1 |  | C[C@H]1CC[C@@H]2[C@H]1C[C@H]([C@@H](C)C(=O)O)CC[C@@]2(C)O [Compound 9, (1R,4S,5S,7R,10R,11R)-10-hydroxyguai-12-oic acid] | > 50 | 
14 | 138 |  | C=C(C)C1CCC(C)(O)C2C(O)CC(C)C2C1 [Compound 5, (1S,2S,4S,5S,7R,10R)-11(13)-en-2,10-dihydroxyguaiene] | > 50 | 

— article PMC5765142, “New anti-inflammatory guaianes from the Atlantic hydrotherm-derived fungus Graphostroma sp. MCCC 3A00421” (Scientific Reports, 2018)
